Read-outs that look alike come from different tables or passages of the source.
Columns and labels:
CCL6 cells = experiment: Cytotoxicity of derivatives on CCL6 cell line (Alamar Blue assay, ID50); assay type: cell-based
Description: The cytotoxicity activity of the derivatives was evaluated on CCL6 cell line. The cells were maintained in RPMI 1640 supplemented with fetal calf serum 10% at 37° C., under a 5% CO2 atmosphere. Cells were plated at 2500 cells per well in 96 well plates. Drugs or derivatives were added 24 hours later. After three days of incubation with drugs or derivatives, 10 μl of Alamar Blue were added to the medium. The Alamar assay was performed as described by Pagé et al. (Pagé, B., et al., Int. J. Oncol., 3, 473-476, 1993), and the ID50 was calculated.

[1] = Chloroform extraction (chloroform-water), mixed one hour, HPLC
[2] = Ratio ID50 of derivative/ID50 of paclitaxel, CCL6 cells, three days of incubation, Alamar Blue

Compound: 2′-[N-(aminohexyl)-amidohexanoic acid]paclitaxel ester [Taxamine 5]
- relative ID* CCL6 (CCL6 cells; [2]): 13

Compound: CC(=O)OC1C(=O)C2(C)C(O)CC3OCC3(OC(C)=O)C2C(OC(=O)c2ccccc2)C2(O)CC(OC(=O)C(OC(=O)CCCCCCCCC(=O)O)C(NC(=O)c3ccccc3)c3ccccc3)C(C)=C1C2(C)C (centres unmarked) [Product 5, 2′-(decanedioic acid)-paclitaxel monoester]
- relative ID* CCL6 (CCL6 cells): 20

Compound: CC(=O)OC1C(=O)C2(C)C(O)CC3OCC3(OC(C)=O)C2C(OC(=O)c2ccccc2)C2(O)CC(OC(=O)C(OC(=O)CCCCC(=O)NCCN)C(NC(=O)c3ccccc3)c3ccccc3)C(C)=C1C2(C)C (centres unmarked) [Taxamine 1, 2′-[N-(aminoethyl)-amidohexanoic acid]-paclitaxel ester]
- relative ID* CCL6 (CCL6 cells; [2]): 24
- Organic phase/aqueous phase [1]: 151

Compound: CC(=O)O[C@H]1C(=O)[C@@]2(C)[C@H]([C@H](OC(=O)c3ccccc3)[C@]3(O)C[C@H](OC(=O)[C@H](O)[C@@H](NC(=O)c4ccccc4)c4ccccc4)C(C)=C1C3(C)C)[C@]1(OC(C)=O)CO[C@@H]1C[C@@H]2O [paclitaxel, reference compound]
- relative ID* CCL6 (CCL6 cells; [2]): 1
